Key:
Assay type in all cases: cell-based
human neutrophils [1] = assay: Interaction of synthetic PSMs with human neutrophils (overall pro-inflammatory activity); details: synthetic PSM peptides, comparison among PSMs
Procedure: (§1) Neutrophils were subjected to a brief hypotonic shock with pyrogen-free water (Sigma), washed, and suspended at 5×10^6 cells/ml in HBSS containing 0.05% human serum albumin (HSA; CLB). Chemotaxis of neutrophils was determined by using fluorescently-labeled neutrophils that migrated through a membrane fitted into an insert of a 24-well microtiter plate transwell system (Costar) containing a prewetted 3-μm-pore-size polycarbonate filter as described (de Haas et al., J Exp Med 199, 687-95, 2004). […] Calcium fluxes were analyzed with a FACScalibur (Becton Dickinson).
Priming of PMNs by synthetic PSMs was determined by increased surface expression of CD11b and gp91phox (granule exocytosis). […] PMNs were analyzed on a FACSCalibur flow cytometer (Becton Dickinson) and dead cells were excluded with a single gate. Percent positive neutrophils were determined with a marker defined by the boundary of the isotype-matched control antibody.
After isolation and washing, PMN or PBMC were resuspended in RPMI 1640 medium (Sigma) supplemented with 10% human serum, 2 mM L-glutamine, 100 U/ml penicillin, 100 μg/ml streptomycin, 2 mM sodium pyruvate, and 10 mM HEPES. […] After removal of supernatant, cells were resuspended in fresh culture medium, counted, and distributed into a 96-well cell culture plate at 100 μl and 2.5×10^5 cells per well. […]

human neutrophils [2] = assay: Neutrophil chemotaxis (transwell); details: PSM-mec vs PSMα3; range similar to other α-type PSMs, in general higher than β-type PSMs (FIG. 21A)
Procedure: Neutrophils were subjected to a brief hypotonic shock with pyrogen-free water (Sigma), washed, and suspended at 5×10^6 cells/ml in HBSS containing 0.05% human serum albumin (HSA; CLB). Chemotaxis of neutrophils was determined by using fluorescently-labeled neutrophils that migrated through a membrane fitted into an insert of a 24-well microtiter plate transwell system (Costar) containing a prewetted 3-μm-pore-size polycarbonate filter as described (de Haas et al., J Exp Med 199, 687-95, 2004). For measurement of calcium ion fluxes, 5×10^6 neutrophils/ml were loaded with 2 μM Fluo-3-AM (Molecular Probes) in RPMI containing 0.05% HSA (RPMI-HSA) for 20 minutes at room temperature under agitation, washed twice with buffer, and resuspended in RPMI-HSA at 10^6 cells/ml. Calcium fluxes were analyzed with a FACScalibur (Becton Dickinson).
as §1, with “(HAS;” for “(HSA;”, “filter.” for “filter as described (de Haas et al., J Exp Med 199, 687-95, 2004).”, “Dickinson). […]” for “Dickinson).”

human neutrophils [3] = assay: Priming of human neutrophils (surface expression of CD11b and gp91phox); details: PSM-mec vs PSMα3; in the range of other α-type PSMs and δ-toxin, higher than β-type PSMs
Procedure: (§2) Priming of PMNs by synthetic PSMs was determined by increased surface expression of CD11b and gp91phox (granule exocytosis). PMNs were incubated with 10-10,000 ng/ml PSM, 10 μM fMLP, 10 ng/ml lipopolysaccharide, or 10 μg/ml lipoteichoic acid in 96-well tissue culture plates at 37° C. with rotation for 60 minutes. The assay was terminated by centrifuging cells at 4° C. for 8 minutes at 350×g. Cells were washed twice in cold Dulbecco's phosphate-buffered saline and stained with and isotype control antibody (BD Biosciences) or those specific for CD11b (mAb 44, BD Biosciences) or gp91phox (mAb 7D533). Propidium iodide (0.5 μg/ml) was used to identify dead cells. PMNs were analyzed on a FACSCalibur flow cytometer (Becton Dickinson) and dead cells were excluded with a single gate. Percent positive neutrophils were determined with a marker defined by the boundary of the isotype-matched control antibody.
as §2, with “10-10000” for “10-10,000”, “7D5).” for “7D533).”
Human neutrophil assays: Human neutrophil isolation, chemotaxis, calcium ion flux, priming, lysis assays, and measurement of IL-8 production were performed as described in Example 2.

For fMEFVAKLFKFFKDLLGKFLGNN [PSMα3], the pro-inflammatory activity (human neutrophils [1]) was “most pronounced pro-inflammatory activity”, the chemotactic activities (human neutrophils [2]) was “most potent” and the “capacity to activate human neutrophils (surface exposure of gp91phox and CD11b)” value (human neutrophils [3]) was “most potent”.

Reference: US8211445B2, “PSM peptides as vaccine targets against methicillin-resistant Staphylococcus” (The United States of America, as represented by the …, priority 2007, dated 2012)
